PMC7036753, “Lipidated Analogs of the LL-37-Derived Peptide Fragment KR12—Structural Analysis, Surface-Active Properties and Antimicrobial Activity” (International Journal of Molecular Sciences, 2020)
≈ marks a conversion by molar mass, not a printed value. Peptide text beside a SMILES is read from it. * marks the point of attachment. Bz = O=C(c1ccccc1)*

Assays:
[1] = tested on: A. baumannii ATCC BAA-1605; type: cell-based, Acinetobacter baumannii; settings: A. baumannii ATCC BAA-1605; Mueller-Hinton Broth, 18 h
Method: (§1) Examination of antimicrobial activity of the test compounds was conducted on reference strains of bacteria assigned to ESKAPE group of pathogens: Enterococcus faecium ATCC 700221, Klebsiella pneumoniae ATCC 700603, Acinetobacter baumannii ATCC BAA-1605, Pseudomonas aeruginosa ATCC 9027, Klebsiella aerogenes ATCC 13048 (formerly Enterobacter aerogenes) and reference strains of Staphylococcus aureus, namely: S. aureus ATCC 25923, S. aureus ATCC 6538, S. aureus ATCC 33591 (MRSA), S. aureus ATCC 9144 and S. aureus ATCC 12598. All the strains were stored at −80 °C in Roti®-Store cryo vials (Carl Roth GmbH, Karlsruhe, Germany) and before the tests were transferred into fresh Mueller-Hinton Medium (BioMaxima, Lublin, Poland) and incubated for 24 h at 37 °C. Subsequently, each bacterial inoculum was seeded on Mueller-Hinton Agar plates (BioMaxima) and incubated again for 24 h. The cultures prepared in this way were used in further antimicrobial assays and prepared as described above. The MIC values were determined by the broth microdilution method according to Clinical and Laboratory Standards Institute Protocol. For this purpose, initial inoculums of bacteria (0.5 × 10^5 colony forming unit (CFU)/mL) in Mueller–Hinton Broth were exposed to the ranging concentrations of compounds (0.5–256 µg/mL) and incubated for 18 h at 37 °C. The experiments were conducted on 96-well microtiter plates, with a final volume of 100 µL. Cell densities were adjusted spectrophotometrically (Multiskan™ GO Microplate Spectrophotometer, Thermo Scientific) at 600 nm. The MICs were taken as the lowest drug concentration at which a visible growth of microorganisms was inhibited. All experiments were conducted in triplicate and included positive (growth) and negative (sterility) controls.

S. aureus ATCC 25923 = type: cell-based, Staphylococcus aureus; settings: S. aureus ATCC 25923; Mueller-Hinton Broth, 18 h
Method: as §1

S. aureus ATCC 6538 = type: cell-based, Staphylococcus aureus; settings: S. aureus ATCC 6538; Mueller-Hinton Broth, 18 h
Method: as §1

S. aureus ATCC 9144 = type: cell-based, Staphylococcus aureus; settings: S. aureus ATCC 9144; Mueller-Hinton Broth, 18 h
Method: as §1

[2] = tested on: S. aureus ATCC 33591 (MRSA); type: cell-based, Staphylococcus aureus; settings: S. aureus ATCC 33591 (MRSA); Mueller-Hinton Broth, 18 h
Method: as §1

S. aureus ATCC 12598 = type: cell-based, Staphylococcus aureus; settings: S. aureus ATCC 12598; Mueller-Hinton Broth, 18 h
Method: as §1

[3] = tested on: S. aureus ATCC 12598 biofilm; type: cell-based, Staphylococcus aureus; settings: S. aureus ATCC 12598 biofilm, 24 h
Method: (§2) The MBECs values were determined according to the method reported previously. Briefly, 24-h cultures of S. aureus, namely: S. aureus ATCC 25923, S. aureus ATCC 6538, S. aureus ATCC 33591 (MRSA), S. aureus ATCC 9144 and S. aureus ATCC 12598 were diluted to a concentration of 0.5 × 10^7 CFU/mL and added to the test wells of polystyrene microdilution flat-bottom plates. After 24-h of incubation at 37 °C, the wells were rinsed three times with PBS to remove non-adherent cells. Subsequently, 100 μL of the test compounds over a concentration range 0.5–256 µg/mL were added to each well and incubated again for 24 h at 37 °C. After this period, 20 μL of the resazurin (7-hydroxy-3H-phenoxazin-3-one-10-oxide, 4 mg/mL) solution was added to each well. After 1 h of incubation, the MBECs were read out. The determined values were recorded as the lowest concentration at which the reduction of resazurin (from blue to pink) was lower or equal to 10 ± 0.5% as compared to the positive (100%) and negative (0%) controls. All experiments were performed in triplicate.

[4] = tested on: S. aureus ATCC 25923 biofilm; type: cell-based, Staphylococcus aureus; settings: S. aureus ATCC 25923 biofilm, 24 h
Method: as §2

[5] = tested on: S. aureus ATCC 6538 biofilm; type: cell-based, Staphylococcus aureus; settings: S. aureus ATCC 6538 biofilm, 24 h
Method: as §2

[6] = tested on: S. aureus ATCC 33591 (MRSA) biofilm; type: cell-based, Staphylococcus aureus; settings: S. aureus ATCC 33591 biofilm, 24 h
Method: as §2

[7] = tested on: S. aureus ATCC 9144 biofilm; type: cell-based, Staphylococcus aureus; settings: S. aureus ATCC 9144 biofilm, 24 h
Method: as §2

[8] = tested on: K. pneumoniae ATCC 700603; type: cell-based, Klebsiella pneumoniae; settings: K. pneumoniae ATCC 700603; Mueller-Hinton Broth, 18 h
Method: as §1

P. aeruginosa ATCC 9027 = type: cell-based, Pseudomonas aeruginosa; settings: P. aeruginosa ATCC 9027; Mueller-Hinton Broth, 18 h
Method: as §1

E. faecium ATCC 700221 = type: cell-based, Enterococcus faecium; settings: E. faecium ATCC 700221; Mueller-Hinton Broth, 18 h
Method: as §1

CC[C@H](C)[C@H](NC(=O)[C@H](CCCNC(=N)N)NC(=O)[C@H](CCC(N)=O)NC(=O)[C@@H](NC(=O)[C@@H](NC(=O)[C@H](CCCNC(=N)N)NC(=O)[C@H](CCCCN)NC(=O)c1ccccc1)[C@@H](C)CC)C(C)C)C(=O)N[C@@H](CCCCN)C(=O)N[C@@H](CC(=O)O)C(=O)N[C@@H](Cc1ccccc1)C(=O)N[C@@H](CC(C)C)C(=O)N[C@@H](CCCNC(=N)N)C(N)=O [VIII, Benzoic acid-KR12-NH2] (Bz-KRIVQRIKDFLR-NH2)
MIC [1]: 16 µg/mL (≈ 9.55 µM) | MIC (S. aureus ATCC 25923): 32 µg/mL (≈ 19.1 µM) | MIC (S. aureus ATCC 6538): 8 µg/mL (≈ 4.78 µM) | MIC (S. aureus ATCC 9144): 16 µg/mL (≈ 9.55 µM) | MIC [2]: 32 µg/mL (≈ 19.1 µM) | MIC (S. aureus ATCC 12598): 16 µg/mL (≈ 9.55 µM) | MBEC [3]: 16 µg/mL | MBEC [4]: 64 µg/mL | MBEC [5]: 32 µg/mL | MBEC [6]: 32 µg/mL | MBEC [7]: 16 µg/mL | MIC [8]: 16 µg/mL (≈ 9.55 µM) | MIC (P. aeruginosa ATCC 9027): 8 µg/mL (≈ 4.78 µM) | MIC (E. faecium ATCC 700221): 1 µg/mL (≈ 0.597 µM)
